We go through four compounds from ChEMBL document CHEMBL1201862, “PubChem BioAssay data set” (2004).

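Cells were grown in 96-well plates and exposed to each compound for 48 hours at five concentrations; endpoints were interpolated linearly between bracketing concentrations, or set to the highest concentration if not reached. GI50 marks 50% less growth.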 Calls of active or inactive are those of the source. No stated cut-off is given here; in the data, active = GI50 up to about 1.1 µM and inactive = higher.

Holding throughout (assay): NCI tumour cell line growth inhibition, 48 h
Assay [1] concerns ACHN.
Assay [2] deals with BT-549.
In assay [3] the test system is COLO 205.
For assay [4], the system named is HL-60.
In assay [5] the test system is HOP-92.
Assay [6] concerns LOX IMVI.
Assay [7] relates to M14.
Assay [8] deals with MOLT-4.
Assay [9] relates to NCI-H23.
Assay [10] concerns NCI-H522.
Assay [11] relates to NCI/ADR-RES.
The test system of assay [12] is OVCAR-4.
For assay [13], the system named is OVCAR-8.
Assay [14] concerns RPMI-8226.
The test system of assay [15] is RXF 393.
The subject of assay [16] is SK-MEL-2.
Assay [17] deals with SW-620.
The subject of assay [18] is U-251.
Assay [19] deals with UACC-257.

On to `C[C@H](NC(=O)C(C)(Cc1ccc(O)cn1)NC(=O)c1ccccc1)c1ccccc1` (stereo not given in full), for which the GI50 in assay [1], in [2], in [3], in assay [4], in [5] and in [6] was > 100 µM (inactive) throughout. The GI50 in assay [7], in assay [8], in [9], in assay [10], in [11] and in assay [12] was > 100 µM (inactive) throughout. Also, the GI50 in assay [13], in [14], in assay [15], in [16], in assay [17] and in assay [18] was > 100 µM (inactive) throughout. The GI50 in assay [19] is > 100 µM (inactive).
Regarding `CCOC(=O)/C(C[C@H]1OC(C)(C)O[C@@H]1[C@H]1COC(C)(C)O1)=N/O`, the GI50 in assay [1], in [2], in [3], in assay [4], in assay [5] and in assay [6] was > 100 µM (inactive) in each case. Besides, the GI50 in [7], in assay [8], in assay [9], in [10], in [11] and in [12] was > 100 µM (inactive) throughout. In addition, the GI50 in assay [13], in assay [14], in assay [15], in assay [16], in [17] and in [18] was > 100 µM (inactive) throughout. In assay [19], the GI50 was > 100 µM (inactive).
On to `C=CCN(C(=O)CNC(=O)C(F)(F)F)c1cc(OCc2ccccc2)c2c(c1)c(C)cn2S(=O)(=O)c1ccccc1`, for which the GI50 in assay [1] is > 26 µM (inactive); in assay [2], > 100 µM (inactive); in [3], 8.02 µM (inactive); in [4] it was < 0.01 µM (active); in assay [5], 4.92 µM (inactive); in assay [6] it was 16 µM (inactive). In addition, the GI50 is > 100 µM (inactive) in [7]; 4.16 µM (inactive) in assay [8]; > 87.7 µM (inactive) in [9]; 6.19 µM (inactive) in assay [10]; > 100 µM (inactive) in assay [11]; 9.16 µM (inactive) in assay [12]. The GI50 in assay [13] was > 26.8 µM (inactive); in [14], 4.73 µM (inactive); in [15], 5.51 µM (inactive); in [16], > 28.5 µM (inactive); in assay [18], > 67.9 µM (inactive); in [19], > 27.5 µM (inactive).
For `CC(=O)O[C@@H]1[C@H](C(C)C)[C@@H](OC(C)=O)C/C(C)=C/CC[C@]2(C)O[C@@H]12`, the GI50 in assay [1], in [2], in assay [3], in assay [4], in assay [5] and in assay [6] was > 100 µM (inactive) in each case. The GI50 in [7], in assay [8], in [9], in assay [10], in assay [11] and in assay [12] was > 100 µM (inactive) in each case. In addition, the GI50 in assay [13], in assay [14], in [15], in [16], in assay [17] and in assay [18] was > 100 µM (inactive) each time. For the same compound, the GI50 in assay [19] was > 100 µM (inactive).
